We go through 32 molecules from US20050113450A1, “Antibacterial agents” (priority 2002, published 2005).

≈ marks a conversion by molar mass, not a printed value.

This experiment concerns SA 9218. Kind of experiment: MIC by standard agar dilution method. It is filed as cell-based. Conditions: Mueller Hinton agar, 10^4 to 10^5 cells per spot, incubated overnight at 35° C., lowest concentration that inhibits visible growth. An excerpt: The antibacterial agents of this invention have useful activity against a variety of organisms. The in vitro activity of compounds of this invention can be assessed by standard testing procedures such as the determination of minimum inhibitory concentration (MIC) by agar dilution as described in “Approved Standard. Methods for Dilution Antimicrobial Susceptibility Tests for Bacteria That Grow Aerobically”, 3rd. ed., published 1993 by the National Committee for Clinical Laboratory Standards, Villanova, Pa., USA. The in vitro MICs of test compounds were determined by a standard agar dilution method. A stock drug solution of each analog was prepared in the preferred solvent, usually DMSO:H2O (1:3). Serial 2-fold dilutions of each sample are made using 1.0 ml aliquots of sterile distilled water. To each 1.0 ml aliquot of drug was added 9 ml of molten Mueller Hinton agar medium. The drug-supplemented agar was mixed, poured into 15×100 mm petri dishes, and allowed to solidify and dry prior to inoculation. Vials of each of the test organisms are maintained frozen in the vapor phase of a liquid nitrogen freezer. Test cultures are grown overnight at 35° C. on the medium appropriate for the organism. Colonies are harvested with a sterile swab, and cell suspensions are prepared in Trypticase Soy broth (TSB) to equal the turbidity of a 0.5 McFarland standard. A 1:20 dilution of each suspension was made in TSB. The plates containing the drug supplemented agar are inoculated with a 0.001 ml drop of the cell suspension using a Steers replicator, yielding approximately 10^4 to 10^5 cells per spot. The plates are incubated overnight at 35° C. Following incubation the Minimum Inhibitory Concentration (MIC μg/ml), the lowest concentration of drug that inhibits visible growth of the organism, was read and recorded.
(In general: In agar dilution the substance is mixed into plates at graded concentrations.)
`CN(c1ccc(Cl)cc1)S(=O)(=O)c1cc(Br)cc(C(=O)Nc2ccc(Br)cc2C(=O)O)c1` [PHA-631082] came in with a minimal inhibitory concentration (MIC) of 0.25 µg/mL (≈ 0.415 µM).
As for `O=C(Nc1ccc([N+](=O)[O-])cc1C(=O)O)c1cccc(C(=O)c2ccccc2)c1` [PHA-519402], the figure is 0.5 µg/mL (≈ 1.28 µM).
As for `O=C(Nc1ccc(Br)cc1C(=O)O)c1ccc(NS(=O)(=O)c2ccccc2)cc1` [PHA-708994], the figure is 8 µg/mL (≈ 16.8 µM).
As for `COc1cc(C(=O)Nc2ccc(Br)cc2C(=O)O)c([N+](=O)[O-])cc1OC`, the figure is greater than 128 µg/mL; as for `COc1cc(C(=O)Nc2ccc(Br)cc2C(=O)O)ccc1C`, greater than 128 µg/mL.
Take `O=C(Nc1ccc(Br)cc1C(=O)O)c1cc(S(=O)(=O)Nc2ccc3c(c2)OCCO3)c(F)cc1Cl`: the MIC was 128 µg/mL (≈ 219 µM).
With `COc1ccc(C(=O)Nc2ccc(Br)cc2C(=O)O)cc1S(=O)(=O)Nc1ccc(Cl)cc1`, it took 16 µg/mL (≈ 29.6 µM) to inhibit growth (MIC).
The same measure for `O=C(Nc1ccc(Br)cc1C(=O)O)c1ccc(Br)c(S(=O)(=O)N2CCN(c3cccc(C(F)(F)F)c3)CC2)c1`: 8 µg/mL (≈ 11.6 µM); for `N#Cc1ccc(/C=C/c2cccc(S(=O)(=O)N3CCc4cc(Cl)ccc43)c2)c(C(=O)O)c1` [PHA-569887]: 0.25 µg/mL (≈ 0.538 µM).
As for `O=C(Nc1ccc(Br)cc1C(=O)O)c1ccc(NC(=O)N2CCc3ccccc32)cc1` [PNU-290877, 5-Bromo-2-({4-[(2,3-dihydro-1H-indol-1-ylcarbonyl)amino]benzoyl}amino)benzoic acid], the figure is greater than 128 µg/mL.
`O=C(Nc1ccc(Br)cc1C(=O)O)c1cc(C(F)(F)F)ccc1Cl` returned an MIC greater than 128 µg/mL.
With `CC(Sc1cccc(C(=O)Nc2ccc(C#N)cc2C(=O)O)c1)c1ccccc1` (centres unmarked) [PHA-547267], the MIC was 0.125 µg/mL (≈ 0.311 µM).
The same measure for `CCCCN(CCO)S(=O)(=O)c1cccc(C(=O)Nc2ccc(C#N)cc2C(=O)O)c1` [PHA-656859]: 16 µg/mL (≈ 35.9 µM); for `CCOc1ccc(C(=O)Nc2ccc(Br)cc2C(=O)O)cc1`: 64 µg/mL (≈ 176 µM); for `O=C(Nc1ccc([N+](=O)[O-])cc1C(=O)O)c1cccc(S(=O)(=O)N2CCOCC2)c1` [PHA-571397]: 4 µg/mL (≈ 9.19 µM).
The molecule `COC(=O)c1ccc(COc2ccc(C(=O)Nc3ccc(Br)cc3C(=O)O)cc2)cc1` gave a minimum inhibitory concentration (MIC) greater than 128 µg/mL.
`O=C(Nc1ccc(Br)cc1C(=O)O)c1cccc(F)c1` yielded a minimal inhibitory concentration (MIC) of 64 µg/mL (≈ 189 µM).
`COC(=O)c1cc(C(=O)Nc2ccc(Br)cc2C(=O)O)cc([N+](=O)[O-])c1` gave a minimal inhibitory concentration (MIC) of 64 µg/mL (≈ 151 µM).
As for `CN(C)c1ccc(CNS(=O)(=O)c2cc(C(=O)Nc3ccc(Br)cc3C(=O)O)ccc2Br)cc1`, the figure is 64 µg/mL (≈ 105 µM); as for `N#Cc1ccc(NC(=O)c2cccc(OCc3ccccc3)c2)c(C(=O)O)c1` [PHA-569974], 1 µg/mL (≈ 2.69 µM).
As for `O=C(Nc1ccc(I)cc1C(=O)O)c1cccc(S(=O)(=O)N2CCSC2)c1`, the figure is 8 µg/mL (≈ 15.4 µM); as for `COc1cccc(C(=O)Nc2ccc(Br)cc2C(=O)O)c1` [PHA-504639], 4 µg/mL (≈ 11.4 µM); as for `O=C(Nc1ccc(Cl)cc1C(=O)O)c1ccc(C(=NOCc2ccccc2)c2ccco2)cc1`, 32 µg/mL (≈ 67.4 µM).
The molecule `Cc1ncsc1CCOc1ccc(C(=O)Nc2ccc(Br)cc2C(=O)O)cc1` displayed an MIC of 32 µg/mL (≈ 69.4 µM).
`O=C(Nc1ccc(Br)cc1C(=O)O)c1ccc(/N=N/c2ccccc2)cc1` returned an MIC of 16 µg/mL (≈ 37.7 µM).
The same measure for `O=C(Nc1ccc(Br)cc1C(=O)O)c1ccc(OCCSc2nc3ccccc3s2)cc1`: 64 µg/mL (≈ 121 µM); for `O=C(Nc1cccc(Cl)c1)Nc1cccc(C(=O)Nc2ccc(Br)cc2C(=O)O)c1` [PHA-708991]: 4 µg/mL (≈ 8.18 µM).
`O=C(Nc1ccc(Cl)cc1C(=O)O)c1cccc(C(=O)c2ccco2)c1`: 8 µg/mL (≈ 21.6 µM) was the least that counted as inhibitory (MIC).
The molecule `CCN(CC)c1ccc(C(=O)Nc2ccc(C#N)cc2C(=O)O)cc1` gave an MIC of 16 µg/mL (≈ 47.4 µM).
The same measure for `O=C(Nc1ccc(Br)cc1C(=O)O)c1ccc(C(=O)N2CCc3ccccc32)cc1` [PNU-292577]: 128 µg/mL (≈ 275 µM).
Turning to `O=C(Nc1ccc(Br)cc1C(=O)O)c1cccc(S(=O)(=O)NCCCn2ccnc2)c1`, the minimal inhibitory concentration (MIC) worked out at 64 µg/mL (≈ 126 µM).
As for `O=C(Nc1ccc(Br)cc1C(=O)O)c1cccc(NC(=O)c2sc3ccccc3c2Cl)c1` [PHA-713391], the figure is greater than 128 µg/mL.

Usually MIC stands for the smallest concentration in the dilution series that meets the test's criterion for growth inhibition.
